From US20040192617A1, “Process for preparing phenolic acid salts of gabapentin” (priority 2003, published 2004)
Like-named read-outs stand apart in the source and are kept apart here.

Experiments:
[1] = Solubility of the tannate salt, seen as precipitation from the reaction solution; assay type: physicochemical; settings: water/ethanol mixture, room temperature; salt precipitates from solution
Protocol: The completeness of the reaction and the formation of the tannate salt were followed by taking samples at different stages of the conversion process. Due to the large size of the tannate salt, it usually precipitates from solution upon formation. The absence or loss of gabapentin from solution is correlated with the formation of the tannate salt.
The conversion process used in this example to synthesize the tannate salt of gabapentin is done at room temperature as follows: 250 ml of purified water and 50 ml of ethanol are placed in a beaker. While mixing the water/ethanol mixture, tannic acid is added and mixing is continued to form a solution. While mixing the tannic acid solution, gabapentin powder is added slowly. The gabapentin reacts with the tannic acid to form the tannate salt. […] The ratio of tannic acid to gabapentin used is 0.8:1.

[2] = in water and across a wide range of pH; cited from earlier work

| Molecule | solubility [1] | solubility [2] |
| --- | --- | --- |
| gabapentin tannate | low solubility | – |
| NCC1(CC(=O)O)CCCCC1 [Gabapentin, 1-(aminomethyl) cyclohexaneacetic acid] | – | freely soluble |
